ChEMBL document CHEMBL4376834, “Discovery of 4H-Chromen-4-one Derivatives as a New Class of Selective Rho Kinase (ROCK) Inhibitors, which Showed Potent Activity in ex Vivo Diabetic Retinopathy Models” (J Med Chem, 2019)

Legend:
[1] = biological target: Epidermal growth factor receptor (Homo sapiens, UniProt P00533, L858R/T790M); assay: Inhibition of recombinant human EGFR T790M/L858R double mutant (696 to end residues) using poly(Glu, Tyr) 4:1 as substrate after 40 mins in presence of [gamma-33ATP] by radiometric scintillation counting analysis
[2] = Inhibition of human PKA using Kemptide as substrate incubated for 40 mins in presence of [gamma-33P]ATP by radiometric scintillation counting analysis
[3] = biological target: Mitogen-activated protein kinase kinase kinase kinase 3 (Homo sapiens, UniProt Q8IVH8); assay: Inhibition of recombinant human MAP4K3 (1 to 291 residues) using RLGRDKYKTLRQI as substrate incubated for 40 mins in presence of [gamma-33ATP by radiometric scintillation counting analysis
[4] = biological target: Serine/threonine-protein kinase ULK3 (Homo sapiens, UniProt Q6PHR2); assay: Inhibition of recombinant human full length ULK3 using casein as substrate incubated for 40 mins in presence of [gamma33P]ATP by radiometric scintillation counting analysis
[5] = biological target: Serine/threonine-protein kinase tousled-like 2 (Homo sapiens, UniProt Q86UE8); assay: Inhibition of recombinant human TLK2 (387 to end residues) using casein as substrate incubated for 40 mins in presence of [gamma33P]ATP by radiometric scintillation counting analysis
[6] = biological target: Serine/threonine-protein kinase/endoribonuclease IRE1 (Homo sapiens, UniProt O75460); assay: Inhibition of human recombinant IRE1 (465 to end residues) using myelin basic protein as substrate after 40 mins by [gamma-33ATP] by radiometric scintillation counting analysis
[7] = biological target: Serine/threonine-protein kinase Nek2 (Homo sapiens, UniProt P51955); assay: Inhibition of recombinant full-length human NEK2 using myelin basic protein as substrate measured after 40 mins in presence of [gamma33P]ATP by radiometric scintillation counting analysis
[8] = biological target: Protein kinase C zeta type (Homo sapiens, UniProt Q05513); assay: Inhibition of recombinant human PKCzeta (2 to end residues) using ERMRPRKRQGSVRR as substrate incubated for 40 mins in presence of [gamma33P]ATP by radiometric scintillation counting analysis
[9] = biological target: Tyrosine-protein kinase Yes (Homo sapiens, UniProt P07947); assay: Inhibition of recombinant full-length human Yes using poly(Glu, Tyr) 4:1 as substrate incubated for 40 mins in presence of [gamma33P]ATP by radiometric scintillation counting analysis
[10] = biological target: Casein kinase I isoform gamma-1 (Homo sapiens, UniProt Q9HCP0); assay: Inhibition of recombinant human CK1gamma1(25 to 355 residues) using KRRRALS(p)VAS as substrate incubated for 40 mins in presence of [gamma-33ATP] by radiometric scintillation counting analysis
[11] = biological target: Tyrosine-protein kinase BTK (Homo sapiens, UniProt Q06187); assay: Inhibition of recombinant full length human BTK using KVEKIGEGTYGVV substrate incubated for 40 mins in presence of [gamma-33ATP] by radiometric scintillation counting analysis
[12] = biological target: Tyrosine-protein kinase SYK (Homo sapiens, UniProt P43405); assay: Inhibition of recombinant human full length SYK using poly(Glu, Tyr) 4:1 as substrate incubated for 40 mins in presence of [gamma33P]ATP by radiometric scintillation counting analysis
[13] = biological target: Epidermal growth factor receptor (Homo sapiens, UniProt P00533, L858R); assay: Inhibition of recombinant human EGFR L858R mutant (696 to end residues) using poly(Glu, Tyr) 4:1 as substrate after 40 mins in presence of [gamma-33ATP] by radiometric scintillation counting analysis
[14] = biological target: Tyrosine-protein kinase ABL1 (Homo sapiens, UniProt P00519); assay: Inhibition of human recombinant ABL1 (27 to end residues) using EAIYAAPFAKKK as substrate incubated for 40 mins in presence of [gamma-33P]ATP by radiometric scintillation counting analysis
[15] = biological target: Mitogen-activated protein kinase kinase kinase 5 (Homo sapiens, UniProt Q99683); assay: Inhibition of human recombinant ASK1 (649 to 946 residues) using myelin as substrate incubated for 40 mins in presence of [gamma-33ATP] by radiometric scintillation counting analysis
[16] = biological target: Serine/threonine-protein kinase 32A (Homo sapiens, UniProt Q8WU08); assay: Inhibition of recombinant human full length STK32A using casein as substrate incubated for 40 mins in presence of [gamma33P]ATP by radiometric scintillation counting analysis
[17] = biological target: Serine/threonine-protein kinase mTOR (Homo sapiens, UniProt P42345); assay: Inhibition of recombinant full length human mTOR measured after 40 mins in presence of [gamma33P]ATP by radiometric scintillation counting analysis
[18] = biological target: Serine/threonine-protein kinase SIK3 (Homo sapiens, UniProt Q9Y2K2); assay: Inhibition of recombinant human SIK3 (1 to 307 residues) using KKKVSRSGLYRSP as substrate incubated for 40 mins in presence of [gamma33P]ATP by radiometric scintillation counting analysis
[19] = biological target: Ribosomal protein S6 kinase alpha-2 (Homo sapiens, UniProt Q15349); assay: Inhibition of recombinant full length human Rsk3 using KKKNRTLSVA as substrate incubated for 40 mins in presence of [gamma33P]ATP by radiometric scintillation counting analysis
[20] = biological target: NUAK family SNF1-like kinase 2 (Homo sapiens, UniProt Q9H093); assay: Inhibition of recombinant human full length NUAK2 using KKKVSRSGLYRSP as substrate measured after 40 mins in presence of [gamma33P]ATP by radiometric scintillation counting analysis
[21] = biological target: Myosin light chain kinase, smooth muscle (Homo sapiens, UniProt Q15746); assay: Inhibition of recombinant human MLCK (1425 to 1771 residues) using […] as substrate incubated for 40 mins in presence of [gamma-33ATP by radiometric scintillation counting analysis
[22] = biological target: Tyrosine-protein kinase Fes/Fps (Homo sapiens, UniProt P07332); assay: Inhibition of recombinant human FES (2 to end residues) using poly(Glu, Tyr) 4:1 as substrate after 40 mins in presence of [gamma-33ATP] by radiometric scintillation counting analysis
[23] = biological target: Serine/threonine-protein kinase Nek3 (Homo sapiens, UniProt P51956); assay: Inhibition of recombinant full-length human NEK3 using myelin basic protein as substrate measured after 40 mins in presence of [gamma33P]ATP by radiometric scintillation counting analysis
[24] = biological target: Homeodomain-interacting protein kinase 3 (Homo sapiens, UniProt Q9H422); assay: Inhibition of human recombinant HIPK3 (161 to 562 residues) using myelin basic protein as substrate after 40 mins by [gamma-33ATP] radiometric assay
[25] = biological target: MAP/microtubule affinity-regulating kinase 3 (Homo sapiens, UniProt P27448); assay: Inhibition of recombinant full length human MARK3 using KKKVSRSGLYRSP as substrate incubated for 40 mins in presence of [gamma-33ATP by radiometric scintillation counting analysis
Activated CDC42 kinase 1 = Activated CDC42 kinase 1 (Homo sapiens, UniProt Q07912); assay: Inhibition of human recombinant ACK1 (1 to 389 residues) using EFPIYDFLPAKKK as substrate incubated for 40 mins in presence of [gamma-33P]ATP by radiometric scintillation counting analysis

Measured: IC50

Chain of Epidermal growth factor receptor (Homo sapiens, UniProt P00533, L858R/T790M) (P00533 25-1210 T790M/L858R limits assumed): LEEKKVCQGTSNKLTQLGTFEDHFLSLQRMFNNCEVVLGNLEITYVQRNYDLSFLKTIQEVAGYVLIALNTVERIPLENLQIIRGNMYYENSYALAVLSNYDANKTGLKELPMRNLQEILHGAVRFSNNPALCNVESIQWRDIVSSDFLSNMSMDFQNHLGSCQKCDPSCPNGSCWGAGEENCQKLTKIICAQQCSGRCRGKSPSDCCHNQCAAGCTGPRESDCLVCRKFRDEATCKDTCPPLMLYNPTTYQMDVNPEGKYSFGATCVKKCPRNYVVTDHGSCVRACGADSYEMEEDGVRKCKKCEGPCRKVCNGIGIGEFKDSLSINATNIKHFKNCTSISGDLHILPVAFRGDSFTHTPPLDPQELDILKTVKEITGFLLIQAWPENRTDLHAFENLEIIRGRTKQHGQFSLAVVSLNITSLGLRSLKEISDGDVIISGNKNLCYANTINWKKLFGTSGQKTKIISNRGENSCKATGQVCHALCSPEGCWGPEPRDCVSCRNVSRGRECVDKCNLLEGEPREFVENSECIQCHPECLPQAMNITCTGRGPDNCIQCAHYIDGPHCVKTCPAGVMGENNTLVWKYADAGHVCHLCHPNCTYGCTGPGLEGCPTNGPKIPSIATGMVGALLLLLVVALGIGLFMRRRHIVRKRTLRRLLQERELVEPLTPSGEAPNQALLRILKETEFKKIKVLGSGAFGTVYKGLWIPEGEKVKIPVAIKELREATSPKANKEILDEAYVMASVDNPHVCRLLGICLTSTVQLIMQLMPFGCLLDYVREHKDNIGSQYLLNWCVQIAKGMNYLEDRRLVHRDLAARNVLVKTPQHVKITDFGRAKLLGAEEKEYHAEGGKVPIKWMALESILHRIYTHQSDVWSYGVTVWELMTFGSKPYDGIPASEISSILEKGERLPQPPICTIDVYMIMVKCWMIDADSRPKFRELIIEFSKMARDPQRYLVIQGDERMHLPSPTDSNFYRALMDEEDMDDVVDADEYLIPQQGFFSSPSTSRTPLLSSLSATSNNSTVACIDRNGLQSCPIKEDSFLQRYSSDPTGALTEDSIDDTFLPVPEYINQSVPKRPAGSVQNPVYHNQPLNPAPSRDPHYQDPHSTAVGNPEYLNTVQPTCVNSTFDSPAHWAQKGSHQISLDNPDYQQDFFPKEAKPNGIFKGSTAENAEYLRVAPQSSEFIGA
Chain of Serine/threonine-protein kinase 32A (Q8WU08 whole entry): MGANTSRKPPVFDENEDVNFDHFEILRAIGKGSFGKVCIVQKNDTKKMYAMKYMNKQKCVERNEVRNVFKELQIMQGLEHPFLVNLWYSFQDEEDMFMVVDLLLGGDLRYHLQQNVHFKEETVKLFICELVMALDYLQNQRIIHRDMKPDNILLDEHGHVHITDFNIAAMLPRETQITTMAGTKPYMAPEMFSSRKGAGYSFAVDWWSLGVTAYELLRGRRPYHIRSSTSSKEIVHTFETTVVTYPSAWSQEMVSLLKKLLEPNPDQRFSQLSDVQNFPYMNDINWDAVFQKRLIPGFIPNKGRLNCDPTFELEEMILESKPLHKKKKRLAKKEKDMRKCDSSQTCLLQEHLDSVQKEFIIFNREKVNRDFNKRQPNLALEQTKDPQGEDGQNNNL
Chain of Homeodomain-interacting protein kinase 3 (Q9H422 whole entry, the tested form may be a part): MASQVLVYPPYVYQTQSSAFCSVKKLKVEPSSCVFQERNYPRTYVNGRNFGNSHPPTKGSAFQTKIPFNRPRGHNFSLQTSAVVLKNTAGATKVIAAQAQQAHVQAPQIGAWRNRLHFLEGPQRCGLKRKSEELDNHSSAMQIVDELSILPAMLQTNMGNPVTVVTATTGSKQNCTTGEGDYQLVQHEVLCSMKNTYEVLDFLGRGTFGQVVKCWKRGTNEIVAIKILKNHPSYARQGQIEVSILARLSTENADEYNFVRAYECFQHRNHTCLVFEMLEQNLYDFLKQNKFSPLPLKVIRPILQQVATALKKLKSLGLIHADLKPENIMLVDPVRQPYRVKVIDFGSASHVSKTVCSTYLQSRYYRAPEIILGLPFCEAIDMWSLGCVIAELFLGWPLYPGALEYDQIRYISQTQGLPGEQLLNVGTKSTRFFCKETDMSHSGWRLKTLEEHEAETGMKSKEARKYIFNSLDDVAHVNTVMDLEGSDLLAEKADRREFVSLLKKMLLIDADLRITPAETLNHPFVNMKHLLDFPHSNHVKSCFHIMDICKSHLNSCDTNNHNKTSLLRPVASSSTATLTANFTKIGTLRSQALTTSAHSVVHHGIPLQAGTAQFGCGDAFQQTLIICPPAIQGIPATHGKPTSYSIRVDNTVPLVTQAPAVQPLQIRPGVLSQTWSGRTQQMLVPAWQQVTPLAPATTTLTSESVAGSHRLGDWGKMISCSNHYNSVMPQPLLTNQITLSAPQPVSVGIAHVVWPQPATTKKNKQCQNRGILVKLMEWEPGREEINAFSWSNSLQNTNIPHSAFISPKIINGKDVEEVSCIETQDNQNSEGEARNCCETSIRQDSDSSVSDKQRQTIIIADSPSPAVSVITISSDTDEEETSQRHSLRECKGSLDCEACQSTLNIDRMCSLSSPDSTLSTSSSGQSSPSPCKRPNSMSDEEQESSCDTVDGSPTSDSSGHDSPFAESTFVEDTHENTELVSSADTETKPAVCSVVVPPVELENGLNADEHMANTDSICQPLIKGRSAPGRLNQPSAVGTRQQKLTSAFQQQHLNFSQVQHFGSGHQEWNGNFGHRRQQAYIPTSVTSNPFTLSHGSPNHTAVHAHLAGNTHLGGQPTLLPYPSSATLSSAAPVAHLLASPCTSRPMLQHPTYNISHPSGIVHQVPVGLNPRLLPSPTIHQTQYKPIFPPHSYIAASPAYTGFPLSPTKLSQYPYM
Chain of Tyrosine-protein kinase ABL1 (P00519 whole entry, the tested form may be a part): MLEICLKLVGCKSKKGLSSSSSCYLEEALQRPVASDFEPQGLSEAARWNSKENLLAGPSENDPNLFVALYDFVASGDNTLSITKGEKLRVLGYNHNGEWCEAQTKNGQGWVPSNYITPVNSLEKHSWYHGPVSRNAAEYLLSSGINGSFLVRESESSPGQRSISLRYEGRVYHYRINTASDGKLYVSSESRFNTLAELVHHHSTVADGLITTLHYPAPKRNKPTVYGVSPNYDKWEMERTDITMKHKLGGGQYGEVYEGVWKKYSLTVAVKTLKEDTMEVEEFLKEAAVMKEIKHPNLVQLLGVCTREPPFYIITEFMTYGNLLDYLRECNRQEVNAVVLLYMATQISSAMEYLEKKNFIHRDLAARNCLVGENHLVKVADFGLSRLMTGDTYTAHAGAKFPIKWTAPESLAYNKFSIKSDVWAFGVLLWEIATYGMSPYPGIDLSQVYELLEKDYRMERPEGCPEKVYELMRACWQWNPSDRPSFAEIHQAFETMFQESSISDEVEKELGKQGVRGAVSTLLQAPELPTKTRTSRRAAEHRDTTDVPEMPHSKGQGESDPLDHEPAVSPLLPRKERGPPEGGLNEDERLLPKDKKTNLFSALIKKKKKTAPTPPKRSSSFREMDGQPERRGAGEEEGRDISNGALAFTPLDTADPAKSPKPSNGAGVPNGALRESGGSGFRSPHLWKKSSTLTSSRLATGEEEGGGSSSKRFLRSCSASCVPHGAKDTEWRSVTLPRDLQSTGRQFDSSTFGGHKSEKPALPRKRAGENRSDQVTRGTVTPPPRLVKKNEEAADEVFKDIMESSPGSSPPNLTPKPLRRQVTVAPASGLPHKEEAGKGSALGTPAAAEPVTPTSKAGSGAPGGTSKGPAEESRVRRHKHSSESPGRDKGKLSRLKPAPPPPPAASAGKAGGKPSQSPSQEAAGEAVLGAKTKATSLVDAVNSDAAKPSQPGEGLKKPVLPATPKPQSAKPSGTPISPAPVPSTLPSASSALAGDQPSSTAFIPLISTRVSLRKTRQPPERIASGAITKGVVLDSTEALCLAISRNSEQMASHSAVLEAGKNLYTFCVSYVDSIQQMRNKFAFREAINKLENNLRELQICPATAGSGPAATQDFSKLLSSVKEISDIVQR
Chain of Serine/threonine-protein kinase Nek2 (P51955 whole entry): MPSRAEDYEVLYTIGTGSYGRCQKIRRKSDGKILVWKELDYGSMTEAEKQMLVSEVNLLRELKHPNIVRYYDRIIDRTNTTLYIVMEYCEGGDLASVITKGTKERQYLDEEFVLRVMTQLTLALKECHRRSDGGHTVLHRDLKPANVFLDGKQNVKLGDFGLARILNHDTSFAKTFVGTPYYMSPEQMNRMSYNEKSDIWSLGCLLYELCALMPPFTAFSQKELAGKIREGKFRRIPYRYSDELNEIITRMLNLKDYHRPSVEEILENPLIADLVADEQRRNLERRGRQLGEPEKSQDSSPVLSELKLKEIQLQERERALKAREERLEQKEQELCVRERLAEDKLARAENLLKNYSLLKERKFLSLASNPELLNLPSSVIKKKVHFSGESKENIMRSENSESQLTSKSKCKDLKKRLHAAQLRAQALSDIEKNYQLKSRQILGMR
Chain of Casein kinase I isoform gamma-1 (Q9HCP0 whole entry, the tested form may be a part, canonical isoform): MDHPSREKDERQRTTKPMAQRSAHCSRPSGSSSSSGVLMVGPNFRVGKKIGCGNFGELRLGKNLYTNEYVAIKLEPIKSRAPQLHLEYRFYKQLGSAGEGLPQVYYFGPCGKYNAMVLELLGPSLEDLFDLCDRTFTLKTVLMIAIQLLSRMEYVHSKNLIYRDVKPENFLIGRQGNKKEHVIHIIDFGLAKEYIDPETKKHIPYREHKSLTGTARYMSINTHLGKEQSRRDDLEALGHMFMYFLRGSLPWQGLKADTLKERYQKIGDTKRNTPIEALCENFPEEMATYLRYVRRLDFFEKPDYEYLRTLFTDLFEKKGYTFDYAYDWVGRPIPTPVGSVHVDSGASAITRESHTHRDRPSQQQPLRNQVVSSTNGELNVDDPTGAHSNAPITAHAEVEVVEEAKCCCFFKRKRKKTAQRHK

CN(C)c1ccc(C(=O)Nc2cccc(NC(=O)COc3ccc4c(=O)ccoc4c3)c2)cc1
> 10 µM: all assays above
